Experiments:
Format in all cases: in vivo
[1] = system: ECHCG; test: Post-emergence biological efficacy; conditions: evaluated after 13 days; for pest or weed control at 250 g/ha: Echinochloa crus-galli, 312 h, read-out: damage to plant (100=total damage to plant; 0=no damage to plant), ECHCG
Method: (§1) Post-Emergence Biological Efficacy
(§2) Seeds of weeds and/or crops were sown in standard soil in pots. After cultivation for 8 days under controlled conditions in a glasshouse (at 24/16° C., day/night; 14 hours light; 65% humidity), the plants were sprayed with an aqueous spray solution derived from the formulation of the technical active ingredient in acetone/water (50:50) solution containing 0.5% Tween 20 (polyoxyethylene sorbitan monolaurate, CAS RN 9005-64-5) to give the desired final dose of test compound.
(§3) The test plants were then grown on under controlled conditions in a glasshouse (at 24/16° C., day/night; 14 hours light; 65% humidity) and watered twice daily. After 13 days the test was evaluated (100=total damage to plant; 0=no damage to plant).

[2] = system: IPOHE; test: Post-emergence biological efficacy; conditions: evaluated after 13 days; for pest or weed control at 250 g/ha: Ipomoea hederacea, 312 h, read-out: damage to plant (100=total damage to plant; 0=no damage to plant), IPOHE
Method: as §1, §2, §3

[3] = system: ELEIN; test: Post-emergence biological efficacy; conditions: evaluated after 13 days; for pest or weed control at 250 g/ha: 312 h, read-out: damage to plant (100=total damage to plant; 0=no damage to plant), ELEIN
Method: as §1, §2, §3

[4] = system: EPHHL; test: Post-emergence biological efficacy; conditions: evaluated after 13 days; for pest or weed control at 250 g/ha: 312 h, read-out: damage to plant (100=total damage to plant; 0=no damage to plant), EPHHL
Method: as §1, §2, §3

[5] = system: SETFA; test: Post-emergence biological efficacy; conditions: evaluated after 13 days; for pest or weed control at 250 g/ha: Setaria faberi, 312 h, read-out: damage to plant (100=total damage to plant; 0=no damage to plant), SETFA
Method: as §1, §2, §3

[6] = system: AMAPA; test: Post-emergence biological efficacy; conditions: evaluated after 13 days; for pest or weed control at 250 g/ha: 312 h, read-out: damage to plant (100=total damage to plant; 0=no damage to plant), AMAPA
Method: as §1, §2, §3

[7] = system: DIGSA; test: Post-emergence biological efficacy; conditions: evaluated after 13 days; for pest or weed control at 250 g/ha: Digitaria sanguinalis, 312 h, read-out: damage to plant (100=total damage to plant; 0=no damage to plant), DIGSA
Method: as §1, §2, §3

[8] = system: CHEAL; test: Post-emergence biological efficacy; conditions: evaluated after 13 days; for pest or weed control at 250 g/ha: Chenopodium album, 312 h, read-out: damage to plant (100=total damage to plant; 0=no damage to plant), CHEAL
Method: as §1, §2, §3

[9] = system: LOLPE; test: Post-emergence biological efficacy; conditions: evaluated after 13 days; for pest or weed control at 250 g/ha: 312 h, read-out: damage to plant (100=total damage to plant; 0=no damage to plant), LOLPE
Method: as §1, §2, §3

[10] = system: ECHCG; test: Pre-emergence biological efficacy; conditions: evaluated after 13 days; for pest or weed control at 250 g/ha: Echinochloa crus-galli, 312 h, read-out: damage to plant (100=total damage to plant; 0=no damage to plant), ECHCG
Method: (§4) Pre-Emergence Biological Efficacy
as §2, with “one day” for “8 days”
(§5) The test plants were then grown under controlled conditions in the glasshouse (at 24/16° C., day/night; 14 hours light; 65% humidity) and watered twice daily. After 13 days the test was evaluated (100=total damage to plant; 0=no damage to plant).

[11] = system: IPOHE; test: Pre-emergence biological efficacy; conditions: evaluated after 13 days; for pest or weed control at 250 g/ha: Ipomoea hederacea, 312 h, read-out: damage to plant (100=total damage to plant; 0=no damage to plant), IPOHE
Method: as §4
as §2, with “one day” for “8 days”
as §5

[12] = system: EPHHL; test: Pre-emergence biological efficacy; conditions: evaluated after 13 days; for pest or weed control at 250 g/ha: 312 h, read-out: damage to plant (100=total damage to plant; 0=no damage to plant), EPHHL
Method: as §4
as §2, with “one day” for “8 days”
as §5

[13] = system: SETFA; test: Pre-emergence biological efficacy; conditions: evaluated after 13 days; for pest or weed control at 250 g/ha: Setaria faberi, 312 h, read-out: damage to plant (100=total damage to plant; 0=no damage to plant), SETFA
Method: as §4
as §2, with “one day” for “8 days”
as §5

[14] = system: AMAPA; test: Pre-emergence biological efficacy; conditions: evaluated after 13 days; for pest or weed control at 250 g/ha: 312 h, read-out: damage to plant (100=total damage to plant; 0=no damage to plant), AMAPA
Method: as §4
as §2, with “one day” for “8 days”
as §5

[15] = system: LOLPE; test: Pre-emergence biological efficacy; conditions: evaluated after 13 days; for pest or weed control at 250 g/ha: 312 h, read-out: damage to plant (100=total damage to plant; 0=no damage to plant), LOLPE
Method: as §4
as §2, with “one day” for “8 days”
as §5

Row | SMILES | pest or weed control at 250 g/ha [1] | pest or weed control at 250 g/ha [2] | pest or weed control at 250 g/ha [3] | pest or weed control at 250 g/ha [4] | pest or weed control at 250 g/ha [5] | pest or weed control at 250 g/ha [6] | pest or weed control at 250 g/ha [7] | pest or weed control at 250 g/ha [8] | pest or weed control at 250 g/ha [9] | pest or weed control at 250 g/ha [10] | pest or weed control at 250 g/ha [11] | pest or weed control at 250 g/ha [12] | pest or weed control at 250 g/ha [13] | pest or weed control at 250 g/ha [14] | pest or weed control at 250 g/ha [15] | further results
1 | CCOC(=O)C1(C)CC(c2cc(-n3c(=O)n(C)c(=S)n(C)c3=O)c(Cl)cc2Cl)=NO1 (stereo not drawn) [Compound 58, Ethyl 3-[2,4-dichloro-5-(3,5-dimethyl-2,6-dioxo-4-thioxo-1,3,5-triazinan-1-yl)phenyl]-5-methyl-4H-isoxazole-5-carboxylate] | 90% | 100% | 90% | 70% | 90% | 90% | 80% | 90% | 30% | 0% | 60% | 0% | 0% | 90% | 0% | 
2 | CCOC(=O)C1(C)CC(c2cc(-n3c(=O)n(C)c(=S)n(C)c3=O)ccc2Cl)=NO1 (stereo not drawn) [Compound 36, Ethyl 3-[2-chloro-5-(3,5-dimethyl-2,6-dioxo-4-thioxo-1,3,5-triazinan-1-yl)phenyl]-5-methyl-4H-isoxazole-5-carboxylate] | 100% | 70% | 50% | 90% | 100% | 100% | 100% | 90% | 50% | 90% | 40% | 70% | 90% | 70% | 10% | 
3 | Cn1c(=S)n(C)c(=O)n(-c2cc(C3=NOC(C)(C(=O)NS(C)(=O)=O)C3)c(Cl)cc2F)c1=O (stereo not drawn) [Compound 284, 3-[2-chloro-5-(3,5-dimethyl-2,6-dioxo-4-thioxo-1,3,5-triazinan-1-yl)-4-fluoro-phenyl]-5-methyl-N-methylsulfonyl-4H-isoxazole-5-carboxamide] | 100% | 100% | 100% | 90% | 100% | 100% | 100% | 100% | 80% | 30% | 100% | 100% | 70% | 100% | 40% | 
4 | COC(=O)CO/N=C(\C)C1(C)CC(c2cc(-n3c(=O)n(C)c(=S)n(C)c3=O)c(F)cc2Cl)=NO1 (stereo not drawn) [Compound 299, methyl 2-[1-[3-[2-chloro-5-(3,5-dimethyl-2,6-dioxo-4-thioxo-1,3,5-triazinan-1-yl)-4-fluoro-phenyl]-5-methyl-4H-isoxazol-5-yl]ethylideneamino]oxyacetate] | 100% | 90% | 90% | 90% | 100% | 100% | 80% | 100% | 90% | 0% | 80% | 90% | 60% | 100% | 60% | 
5 | COC(=O)C1(C)ON=C(c2cc(-n3c(=O)n(C)c(=S)n(C)c3=O)c(F)cc2Cl)C1C (stereo not drawn) [Compound 145, Methyl 3-[2-chloro-5-(3,5-dimethyl-2,6-dioxo-4-thioxo-1,3,5-triazinan-1-yl)-4-fluoro-phenyl]-4,5-dimethyl-4H-isoxazole-5-carboxylate] | 100% | 100% | 100% | 100% | 100% | 100% | 100% | 100% | 100% | 90% | 100% | 100% | 100% | 100% | 90% | 
6 | CCOC(=O)C1(C)CC(c2cc(-n3c(=O)n(C)c(=S)n(C)c3=O)c(F)cc2Cl)=NO1 (single isomer, unassigned) [Compound 47 (enantiomer A)] |  |  |  |  |  |  |  |  |  |  |  |  |  |  |  | damage to plant (100=total damage to plant; 0=no damage to plant), ECHCG ([1]; 250 g/ha): 100; damage to plant (100=total damage to plant; 0=no damage to plant), IPOHE ([2]; 250 g/ha): 100; damage to plant (100=total damage to plant; 0=no damage to plant), ELEIN ([3]; 250 g/ha): 90; damage to plant (100=total damage to plant; 0=no damage to plant), EPHHL ([4]; 250 g/ha): 90; damage to plant (100=total damage to plant; 0=no damage to plant), SETFA ([5]; 250 g/ha): 100; damage to plant (100=total damage to plant; 0=no damage to plant), AMAPA ([6]; 250 g/ha): 100; damage to plant (100=total damage to plant; 0=no damage to plant), DIGSA ([7]; 250 g/ha): 100; damage to plant (100=total damage to plant; 0=no damage to plant), CHEAL ([8]; 250 g/ha): 100; damage to plant (100=total damage to plant; 0=no damage to plant), LOLPE ([9]; 250 g/ha): 70; damage to plant (100=total damage to plant; 0=no damage to plant), ECHCG ([10]; 250 g/ha): 60; damage to plant (100=total damage to plant; 0=no damage to plant), IPOHE ([11]; 250 g/ha): 90; damage to plant (100=total damage to plant; 0=no damage to plant), EPHHL ([12]; 250 g/ha): 100; damage to plant (100=total damage to plant; 0=no damage to plant), SETFA ([13]; 250 g/ha): 100; damage to plant (100=total damage to plant; 0=no damage to plant), AMAPA ([14]; 250 g/ha): 100; damage to plant (100=total damage to plant; 0=no damage to plant), LOLPE ([15]; 250 g/ha): 50
7 | Cn1c(=S)n(C)c(=O)n(-c2cc(C3=NOC(C)(C(N)=O)C3)c(Cl)cc2F)c1=O (stereo not drawn) [Compound 308, 3-[2-chloro-5-(3,5-dimethyl-2,6-dioxo-4-thioxo-1,3,5-triazinan-1-yl)-4-fluoro-phenyl]-5-methyl-4H-isoxazole-5-carboxamide] | 100% | 100% | 100% | 90% | 100% | 100% | 100% | 100% | 90% | 10% | 50% | 80% | 90% | 100% | 60% | 
8 | Cn1c(=S)n(C)c(=O)n(-c2cc(C3=NOC(C)(C(=O)O)C3)c(Cl)cc2Cl)c1=O (stereo not drawn) [Compound 56, 3-[2,4-dichloro-5-(3,5-dimethyl-2,6-dioxo-4-thioxo-1,3,5-triazinan-1-yl)-phenyl]-5-methyl-4H-isoxazole-5-carboxylic acid] | 90% | 90% | 80% | 80% | 90% | 100% | 80% | 90% | 30% | 0% | 30% | 10% | 10% | 90% | 10% | 

From patent US12202821B2, “Herbicidal compounds” (SYNGENTA CROP PROTECTION AG, priority 2019, dated 2025)
